Where a SMILES comes first, the peptide text is derived from it. Bridges are numbered along the chain shown (N, C = ends). [ ]: non-standard residue; d: D form. Nle = CCCC[C@H](N)C(=O)O
Legend:
hMC5R [1] = biological target: T1, hMC5R (Homo sapiens, UniProt P33032); assay: Adenylate cyclase assay; format: cell-based; conditions: cAMP, text description
hMC3R [2] = biological target: T2, hMC3R (Homo sapiens, UniProt P41968); assay: Competition binding vs 125I-[Nle4,DPhe7]-α-MSH on whole HEK293 cells; conditions: text description
T2 sequence (P41968 whole entry): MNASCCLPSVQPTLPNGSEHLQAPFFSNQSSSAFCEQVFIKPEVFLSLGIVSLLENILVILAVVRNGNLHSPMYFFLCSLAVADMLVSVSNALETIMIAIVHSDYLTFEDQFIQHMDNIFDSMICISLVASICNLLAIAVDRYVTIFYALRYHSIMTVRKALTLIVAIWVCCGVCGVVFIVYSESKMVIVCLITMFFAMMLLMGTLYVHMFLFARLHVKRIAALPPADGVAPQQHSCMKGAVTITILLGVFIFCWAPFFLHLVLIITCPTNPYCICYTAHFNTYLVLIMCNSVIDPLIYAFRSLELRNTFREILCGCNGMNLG

hMC3R [3] = biological target: T2, hMC3R; assay: Adenylate cyclase assay; format: cell-based; conditions: cAMP, text description
hMC1R [4] = biological target: T3, hMC1R (Homo sapiens, UniProt Q01726); assay: Competition binding vs 125I-[Nle4,DPhe7]-α-MSH on whole HEK293 cells; conditions: text description
T3 sequence (Q01726 whole entry): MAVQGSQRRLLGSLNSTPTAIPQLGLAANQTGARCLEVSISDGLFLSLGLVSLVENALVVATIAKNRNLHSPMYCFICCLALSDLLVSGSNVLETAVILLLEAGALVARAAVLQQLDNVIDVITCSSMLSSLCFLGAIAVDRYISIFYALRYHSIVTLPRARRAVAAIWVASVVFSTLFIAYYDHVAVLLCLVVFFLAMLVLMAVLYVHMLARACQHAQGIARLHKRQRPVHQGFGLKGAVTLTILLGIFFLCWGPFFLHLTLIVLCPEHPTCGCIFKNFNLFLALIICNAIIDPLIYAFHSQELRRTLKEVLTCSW

hMC4R [5] = biological target: T4, hMC4R (Homo sapiens, UniProt P32245); assay: as above; conditions: text description
T4 sequence (P32245 whole entry): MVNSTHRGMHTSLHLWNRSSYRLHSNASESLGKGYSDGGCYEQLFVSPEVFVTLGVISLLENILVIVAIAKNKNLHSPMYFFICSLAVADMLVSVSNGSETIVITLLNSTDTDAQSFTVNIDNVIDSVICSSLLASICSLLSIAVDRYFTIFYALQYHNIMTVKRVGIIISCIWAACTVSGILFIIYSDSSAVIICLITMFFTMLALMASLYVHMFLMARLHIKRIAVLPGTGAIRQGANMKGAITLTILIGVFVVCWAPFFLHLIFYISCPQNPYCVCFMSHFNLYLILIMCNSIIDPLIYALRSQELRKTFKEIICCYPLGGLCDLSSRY

hMC4R [6] = biological target: T4, hMC4R; assay: Adenylate cyclase assay; format: cell-based; conditions: cAMP, text description
hMC1R [7] = biological target: T3, hMC1R; assay: Adenylate cyclase assay; format: cell-based; conditions: cAMP, text description
hMC5R [8] = biological target: T1, hMC5R; assay: Competition binding vs 125I-[Nle4,DPhe7]-α-MSH on whole HEK293 cells; conditions: text description

T1 sequence (P33032 whole entry): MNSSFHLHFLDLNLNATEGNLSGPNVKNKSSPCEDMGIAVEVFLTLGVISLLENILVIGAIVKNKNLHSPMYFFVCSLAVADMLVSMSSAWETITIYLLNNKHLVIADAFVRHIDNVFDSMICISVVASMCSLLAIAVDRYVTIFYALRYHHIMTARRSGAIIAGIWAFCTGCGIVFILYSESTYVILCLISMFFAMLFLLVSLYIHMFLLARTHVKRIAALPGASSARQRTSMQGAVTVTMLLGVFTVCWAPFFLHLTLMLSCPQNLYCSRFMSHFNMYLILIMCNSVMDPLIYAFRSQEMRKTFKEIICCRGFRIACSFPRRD

functional activity at hMC5R (in words) (hMC5R [1]) | binding at hMC3R (in words) (hMC3R [2]) | functional activity at hMC3R (in words) (hMC3R [3]) | binding at hMC1R (in words) (hMC1R [4]) | binding at hMC4R (in words) (hMC4R [5]) | functional activity at hMC4R (in words) (hMC4R [6]) | functional activity at hMC1R (in words) (hMC1R [7]) | binding at hMC5R (in words) (hMC5R [8]) | Structure (SMILES)
weak and moderate activation | weak binding | no stimulation of cAMP accumulation | no affinity | no affinity | weak and moderate activation | weak and moderate activation | no affinity | CCCC[C@H](NC(C)=O)C(=O)N[C@H]1CC(=O)NCCCC[C@@H](C(N)=O)NC(=O)[C@H](Cc2c[nH]c3ccccc23)NC(=O)[C@H](CCCNC(=N)N)NC(=O)[C@@H](Cc2ccccc2)NC(=O)[C@@H]2CCCN2C(=O)[C@H](Cc2c[nH]c3ccccc23)NC1=O [compound 3, Ac-Nle-c[D-W-P-DPhe-R-W-K]-NH2]
undetectable activity | low binding affinity | undetectable activity | no appreciable binding | low binding affinity | undetectable activity | low potency | no appreciable binding | CCCC[C@H](NC(C)=O)C(=O)N[C@H]1CC(=O)NCCCC[C@@H](C(N)=O)NC(=O)[C@H](Cc2c[nH]c3ccccc23)NC(=O)[C@H](CCCNC(=N)N)NC(=O)[C@@H](Cc2ccccc2)NC(=O)[C@@H]2CCCN2C(=O)[C@@H]2CCCN2C1=O [compound 1, Ac-Nle-c[D-P-P-DPhe-R-W-K]-NH2] (Ac-[Nle]DPP[dF]RWK-NH2; lactam 2-8)

— PMC5070805 (Journal of medicinal chemistry, 2015)
